Experiments:
human TLR7 = biological target: T1, human TLR7 (Homo sapiens, UniProt Q9NYK1); test: HEK293-Blue-hTLR-7 cells assay; assay type: cell-based; conditions: HEK293-Blue-hTLR7 cells, R848 stimulation, 20 hrs, SEAP reporter; read-out: HEK/hTLR7 IC50
T1 sequence (Q9NYK1 27-1049): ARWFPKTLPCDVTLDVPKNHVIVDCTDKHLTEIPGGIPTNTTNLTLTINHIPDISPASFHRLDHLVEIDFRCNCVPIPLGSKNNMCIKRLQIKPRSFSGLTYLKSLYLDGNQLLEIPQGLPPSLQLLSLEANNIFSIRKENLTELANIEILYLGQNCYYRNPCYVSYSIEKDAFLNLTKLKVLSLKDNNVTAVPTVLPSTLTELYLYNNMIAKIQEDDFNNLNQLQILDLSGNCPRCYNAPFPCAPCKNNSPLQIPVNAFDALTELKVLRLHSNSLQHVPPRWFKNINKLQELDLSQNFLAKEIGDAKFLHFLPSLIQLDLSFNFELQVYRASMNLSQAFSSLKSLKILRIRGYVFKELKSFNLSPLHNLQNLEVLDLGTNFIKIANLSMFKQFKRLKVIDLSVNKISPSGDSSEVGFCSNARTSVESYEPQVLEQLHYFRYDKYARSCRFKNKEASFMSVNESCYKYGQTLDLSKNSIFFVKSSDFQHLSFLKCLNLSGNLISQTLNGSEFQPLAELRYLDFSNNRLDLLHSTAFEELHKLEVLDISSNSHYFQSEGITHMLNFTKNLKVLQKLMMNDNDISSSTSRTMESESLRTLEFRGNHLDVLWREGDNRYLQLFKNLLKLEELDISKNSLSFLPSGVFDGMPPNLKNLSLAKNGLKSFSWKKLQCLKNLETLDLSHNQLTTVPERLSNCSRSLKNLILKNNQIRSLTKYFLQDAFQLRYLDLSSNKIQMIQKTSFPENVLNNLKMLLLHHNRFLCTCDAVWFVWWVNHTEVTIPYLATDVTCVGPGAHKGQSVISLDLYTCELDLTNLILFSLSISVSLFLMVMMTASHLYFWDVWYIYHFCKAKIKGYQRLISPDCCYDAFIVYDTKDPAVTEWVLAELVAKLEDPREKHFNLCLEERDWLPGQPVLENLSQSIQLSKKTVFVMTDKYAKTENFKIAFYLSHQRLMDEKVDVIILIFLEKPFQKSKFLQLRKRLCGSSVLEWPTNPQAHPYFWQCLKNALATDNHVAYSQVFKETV
Text: HEK293-Blue-hTLR-7 cells assay:
A stable HEK293-Blue-hTLR-7 cell line was purchased from InvivoGen (Cat. #: hkb-htlr7, San Diego, California, USA). These cells were originally designed for studying the stimulation of human TLR7 by monitoring the activation of NF-κB. A SEAP (secreted embryonic alkaline phosphatase) reporter gene was placed under the control of the IFN-β minimal promoter fused to five NF-κB and AP-1-binding sites. The SEAP was induced by activating NF-κB and AP-1 via stimulating HEK-Blue hTLR7 cells with TLR7 ligands. Therefore the reporter expression was declined by TLR7 antagonist under the stimulation of a ligand, such as R848 (Resiquimod), for incubation of 20 hrs. The cell culture supernatant SEAP reporter activity was determined using QUANTI-Blue™ kit (Cat. #: rep-qb1, Invivogen, San Diego, Ca, USA) at a wavelength of 640 nm, a detection medium that turns purple or blue in the presence of alkaline phosphatase.
HEK293-Blue-hTLR7 cells were incubated at a density of 250,000˜450,000 cells/mL in a volume of 170 μL in a 96-well plate in Dulbecco's Modified Eagle's medium (DMEM) containing 4.5 g/L glucose, 50 U/mL penicillin, […], […], 2 mM L-glutamine, 10% (v/v) heat-inactivated fetal bovine serum with addition of 20 μL test compound in a serial dilution in the presence of final DMSO at 1% and 10 μL of 20 uM R848 in above DMEM, perform incubation under 37° C. in a CO2 incubator for 20 hrs. Then 20 μL of the supernatant from each well was incubated with 180 μL Quanti-blue substrate solution at 37° C. for 2 hrs and the absorbance was read at 620˜655 nm using a spectrophotometer. The signaling pathway that TLR7 activation leads to downstream NF-κB activation has been widely accepted, and therefore similar reporter assay was modified for evaluating TLR7 antagonist.

CYP2C9 = biological target: T2, CYP2C9 (Homo sapiens, UniProt P11712); test: CYP inhibition assay in human liver microsome, CYP2C9; assay type: in vitro ADME; conditions: percentage inhibition, substrate Diclofenac 5 μM, <0: not or weak inhibitor
T2 construct: tissue BD-Gentest 452117; host or cells: human liver microsomes
Experimental: (§1) This is a high throughput screening assay used for assessment of reversible inhibition of CYP2C9, CYP2D6, and CYP3A4 activity of test compounds in human liver microsome (HLM) in early discovery stage.
(§2) Procedure 10 mM DMSO stock solutions of test compounds were diluted in DMSO to generate 2 mM intermediate stock solution. 250 nL of intermediate stock solution were transferred in duplicate into 3 separate 384 well microtitre plates (assay-ready plates). A mixture of HLM and each substrate was made up. 45 μL of HLM substrate mix was then transferred to each well of an assay ready plate and mixed. The negative (solvent) and positive controls (standard inhibitor for each CYP) were included in each assay ready plate. The assay ready plate was warmed to 37° C. in an incubator over 10 minutes. 5 μL pre-warmed NADPH regenerating system was added to each incubation well to start the reaction. Final incubation volume was 50 μL. The assay plate then was placed back in the 37° C. incubator. After incubation (10 minutes for CYP2D6) for 5 minutes, incubates were quenched by addition of 50 μL 100% acetonitrile containing internal standards (400 ng/mL 13C6-4′-OH-Diclofenac, 20 ng/mL D3-Dextrorphan and 20 ng/mL D4-1′OH-Midazolam). The supernatants were collected for RapidFire/MS/MS analysis.
(§3) RapidFire online solid phase extraction/sample injection system (Agilent) coupled with API4000 triple quadrupole mass spectrometer (AB Sciex) were used for sample analysis. The mobile phase composed of acetonitrile and water supplemented with 0.1% formic acid. A C4 solid phase extraction cartridge is used for sample separation. MS detection is achieved in positive ion MRM mode.
(§4) Data analysis Peak areas for substrate, metabolite and internal standard are determined using the RapidFire integrator software (version 3.6.12009.12296). Peak area ratios (PAR) of metabolite and internal standard (stable-labelled metabolite) are then calculated. The measurement window for each experiment is then defined: PAR (0% activity)=average PAR for all incubations containing concentrated inhibitor; Par (100% activity)=average PAR for all incubations containing no inhibitor (DMSO controls); % Activity (test inhibitor)=[PAR (test inhibitor)-PAR (0% activity)]/[PAR (100% activity)-PAR (0% activity)]; % Inhibition (test inhibitor)=100-% Activity (test inhibitor).

CYP2D6 = biological target: T3, CYP2D6 (Homo sapiens, UniProt P10635); test: CYP inhibition assay in human liver microsome, CYP2D6; assay type: in vitro ADME; conditions: percentage inhibition, substrate Dextromethorphan 5 μM, <0: not or weak inhibitor
T3 construct: tissue BD-Gentest 452117; host or cells: human liver microsomes
Experimental: as §1, §2, §3, §4

T3 sequence (P10635 whole entry): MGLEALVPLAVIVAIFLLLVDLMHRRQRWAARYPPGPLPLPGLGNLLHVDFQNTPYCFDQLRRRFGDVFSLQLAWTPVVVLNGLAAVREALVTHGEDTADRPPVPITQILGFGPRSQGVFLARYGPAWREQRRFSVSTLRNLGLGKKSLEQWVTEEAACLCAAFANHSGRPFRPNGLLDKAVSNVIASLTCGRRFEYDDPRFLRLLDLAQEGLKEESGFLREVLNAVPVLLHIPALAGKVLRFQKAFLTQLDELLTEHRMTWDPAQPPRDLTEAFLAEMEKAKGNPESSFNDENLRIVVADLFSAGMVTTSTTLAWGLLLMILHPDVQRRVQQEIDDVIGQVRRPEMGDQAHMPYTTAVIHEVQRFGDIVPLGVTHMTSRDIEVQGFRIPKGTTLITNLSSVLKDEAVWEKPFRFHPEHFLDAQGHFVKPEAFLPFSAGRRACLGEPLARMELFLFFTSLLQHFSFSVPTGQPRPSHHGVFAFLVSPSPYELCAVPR
T2 sequence (P11712 whole entry): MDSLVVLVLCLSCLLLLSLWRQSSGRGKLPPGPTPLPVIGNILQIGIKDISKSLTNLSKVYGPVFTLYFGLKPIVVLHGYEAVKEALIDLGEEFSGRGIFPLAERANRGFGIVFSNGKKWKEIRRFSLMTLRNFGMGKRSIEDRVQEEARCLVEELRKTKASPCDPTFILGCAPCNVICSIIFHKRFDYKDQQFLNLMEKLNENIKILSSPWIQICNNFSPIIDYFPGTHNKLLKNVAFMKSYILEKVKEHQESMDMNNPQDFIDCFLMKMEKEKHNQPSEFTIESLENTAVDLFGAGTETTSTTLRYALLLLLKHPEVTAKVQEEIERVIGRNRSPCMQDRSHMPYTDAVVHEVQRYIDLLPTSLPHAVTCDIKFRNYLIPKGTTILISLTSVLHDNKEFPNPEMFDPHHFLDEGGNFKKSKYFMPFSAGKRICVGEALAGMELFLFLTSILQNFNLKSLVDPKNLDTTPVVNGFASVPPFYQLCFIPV

`C[C@@H]1CN(c2ccc(C#N)n3nccc23)C[C@H](CN2CC3(C2)OCc2cc(N4CC5(CNCCO5)C4)ccc23)O1` [Example 7, 4-[(2R,6S)-2-methyl-6-[[6-(5-oxa-2,8-diazaspiro[3.5]nonan-2-yl)spiro[1H-isobenzofuran-3,3′-azetidine]-1′-yl]methyl]morpholin-4-yl]pyrazolo[1,5-a]pyridine-7-carbonitrile] was tested, and the IC50 (human TLR7) was 15 nM, the “CYP (%) 2C9” value (CYP2C9) was 0% and the “CYP (%) 2D6” value (CYP2D6) was −2%.
`[2H]c1ccc2c(N3C[C@H](CN4CC5(C4)OCc4cc(N6CC(N)C6)cnc45)O[C@H](C)C3)ccc(C#N)c2n1` [Example 20, 5-[(2S,6R)-2-[[3-(3-aminoazetidin-1-yl)spiro[5H-furo[3,4-b]pyridine-7,3′-azetidine]-1′-yl]methyl]-6-methyl-morpholin-4-yl]-2-deuterio-quinoline-8-carbonitrile] was tested, and the IC50 (human TLR7) was 9 nM, the “CYP (%) 2C9” value (CYP2C9) was 13.5% and the “CYP (%) 2D6” value (CYP2D6) was 13%.
With `[2H]c1ccc2c(N3C[C@H](CN4CC5(C4)OCc4cc(N6CC(C)(N)C6)cnc45)O[C@H](C)C3)ccc(C#N)c2n1` [Example 21, 5-[(2S,6R)-2-[[3-(3-amino-3-methyl-azetidin-1-yl)spiro[5H-furo[3,4-b]pyridine-7,3′-azetidine]-1′-yl]methyl]-6-methyl-morpholin-4-yl]-2-deuterio-quinoline-8-carbonitrile] the IC50 (human TLR7) was 7 nM, the “CYP (%) 2C9” value (CYP2C9) was 4.5% and the “CYP (%) 2D6” value (CYP2D6) was 5%.
With `C[C@@H]1CN(c2ccc(C#N)n3ncc(F)c23)C[C@H](CN2CC3(C2)OCc2cc(N4CC(C)(N)C4)ncc23)O1` [Example 24, 4-[(2S,6R)-2-[[6-(3-amino-3-methyl-azetidin-1-yl)spiro[1H-furo[3,4-c]pyridine-3,3′-azetidine]-1′-yl]methyl]-6-methyl-morpholin-4-yl]-3-fluoro-pyrazolo[1,5-a]pyridine-7-carbonitrile] the IC50 (human TLR7) was 16 nM, the “CYP (%) 2C9” value (CYP2C9) was 21% and the “CYP (%) 2D6” value (CYP2D6) was 3.5%.
`C[C@@H]1CN(c2ccc(C#N)n3ncc(F)c23)C[C@H](CN2CC3(C2)OCc2cc(N4C[C@H](N)[C@@H](O)C4)ccc23)O1` [Example 10, 4-[(2S,6R)-2-[[6-[(3S,4S)-3-amino-4-hydroxy-pyrrolidin-1-yl]spiro[1H-isobenzofuran-3,3′-azetidine]-1′-yl]methyl]-6-methyl-morpholin-4-yl]-3-fluoro-pyrazolo[1,5-a]pyridine-7-carbonitrile] was tested, and the IC50 (human TLR7) was 8 nM.
With `[2H]c1ccc2c(N3C[C@H](CN4CC5(C4)OCc4cc(N6C[C@H]7NCCO[C@@H]7C6)ccc45)O[C@H](C)C3)ccc(C#N)c2n1` [Example 17, 5-[(2S,6R)-2-[[6-[(4aR,7aR)-3,4,4a,5,7,7a-hexahydro-2H-pyrrolo[3,4-b][1,4]oxazin-6-yl]spiro[1H-isobenzofuran-3,3′-azetidine]-1′-yl]methyl]-6-methyl-morpholin-4-yl]-2-deuterio-quinoline-8-carbonitrile] the IC50 (human TLR7) was 15 nM, the “CYP (%) 2C9” value (CYP2C9) was 3.5% and the “CYP (%) 2D6” value (CYP2D6) was 18.5%.
`C[C@@H]1CN(c2ccc(C#N)n3ncc(F)c23)C[C@H](CN2CC3(C2)OCc2cc(N4CC5(CN(C)C5)C4)cnc23)O1` [Example 22, 3-fluoro-4-[(2R,6S)-2-methyl-6-[[3-(6-methyl-2,6-diazaspiro[3.3]heptan-2-yl)spiro[5H-furo[3,4-b]pyridine-7,3′-azetidine]-1′-yl]methyl]morpholin-4-yl]pyrazolo[1,5-a]pyridine-7-carbonitrile] was tested, and the IC50 (human TLR7) was 9 nM.
In the case of `C[C@@H]1CN(c2ccc(C#N)n3ncc(F)c23)C[C@H](CN2CC3(C2)OCc2cc(N4CC(C)(N)C4)cnc23)O1` [Example 33, 4-[(2S,6R)-2-[[3-(3-amino-3-methyl-azetidin-1-yl)spiro[5H-furo[3,4-b]pyridine-7,3′-azetidine]-1′-yl]methyl]-6-methyl-morpholin-4-yl]-3-fluoro-pyrazolo[1,5-a]pyridine-7-carbonitrile], the IC50 (human TLR7) is reported as 13 nM.
With `C[C@@H]1CN(c2ccc(C#N)n3ncc(F)c23)C[C@H](CN2CC3(C2)OCc2cc(N4CC5(CNC5)C4)ccc23)O1` [Example 12, 4-[(2S,6R)-2-[[6-(2,6-diazaspiro[3.3]heptan-2-yl)spiro[1H-isobenzofuran-3,3′-azetidine]-1′-yl]methyl]-6-methyl-morpholin-4-yl]-3-fluoro-pyrazolo[1,5-a]pyridine-7-carbonitrile] the IC50 (human TLR7) was 10 nM.
